# Experimental data reported in US5500430A, “Amidic derivatives of glutamic, aspartic and 2-amino adipic acids, a process for preparing same, and anti-gastrin composition containing the derivatives” (Rotta Research Laboratorium S.p.A., priority 1990, dated 1996).
# Where two headings read alike, the source gives them in different places.
# What was measured:
# [1] = tested on: guinea-pig gall bladder contracted with CCK-8; assay: Anticholecystokinin (anti-CCK) activity on guinea-pig gall bladders stimulated by CCK-8 in vitro; details: CCK-8 concentration 10 ng/ml, Krebs, 32° C.
# Procedure: Anticholecystokinin (anti-cc, K) activity
# In order to confirm the hypothesis that the molecular conformations of the compounds of the invention are suitable to provide them with antagonistic activity towards CCK as well as towards gastrin, the anticontracturant activities of some of the compounds of the invention were tested on guinea-pig gall bladders stimulated by CCK-8 in vitro.
# A longitudinal strip of guinea-pig gall bladder was placed in a bath for isolated organs in the presence of Krebs at a temperature of 32° C. and oxygenated continuously with an oxygen-CO2 mixture (95-5 V/V).
# The isometric contractions were detected by means of a force transducer and recorded.
# The gall bladder was contracted with the use of a concentration of 10 ng/ml of CCK-8; the antagonistic activities of the compounds towards the contracturant effect of the CCK was determined with the use of different concentrations, thus determining the IC50 values, that is, the concentration of the compound in mcg/ml which can antagonise the contracturant effect of CCK by 50%.
# [2] = tested on: gastric acid secretion induced by pentagastrin; assay: Antisecretive activity in conscious dogs carrying gastric fistulae; assay type: in vivo, dogs (beagles); details: for ED50: Canis lupus familiaris, iv, read-out: ID50 (the source's name)
# Procedure: Antisecretive activity in conscious dogs
# Male beagles weighing about 10 Kg were used and carried gastric fistulae at the level of the greater curvature, connected near the antral region, steel cannulae 5 cm long and 2 cm wide being inserted for collecting the gastric juices externally. After a period of about one month to recover from the operation, and after suitable conditioning, the animals were treated with pentagastrin at a dose of 3 mcg/Kg/h. The Stimulant, dissolved in a physiological solution, was perfused into the femoral vein for 180 minutes at a rate of 1.9 ml/h. After perfusion for 60 minutes (the basal stimulation) the product under test, dissolved in a physiological solution (1 ml/Kg), was administered in a bolus into the contra-lateral vein and, at the same time, the perfusion of the stimulant continued for a further 120 minutes. The acid secretion was recorded continuously as a function of time.
# The activity of the product was evaluated as the percentage reduction in the secreted acidity after the administration of the product compared with the base acidity measured during the first 60 minutes of collection during which only the pentagastrin was present, for each of the periods 0-60 and 60-120 minutes after the product had been administered in a bolus.
# Different doses of the compounds (C-1 and C-5) tested were administered so that an ID50, that is the dose (in mg/Kg I.V.) capable of inhibiting the effect of the pentagastrin by 50% could be calculated.
# The results obtained are given in the following table (Tab. 2) in which the % variations from the base (the mean ± standard deviations calculated on the values obtained from 4 animals) are given for the various doses administered under the stimulus of 3 mcg/Kg/h of pentagastrin, as well as the activities of the compounds, calculated as their ID50s, and the correlation coefficients of the regression lines calculated on the basis of the experimental data.
# [3] = molecular target: T1, gastrin receptor sites on the cerebral cortex membranes of mice (Mus musculus, UniProt P56481); assay: Inhibition of the binding of pentagastrin to mouse cortical membranes
# T1 construct: Mouse cortical tissue; from tissue; host or cells: mouse cerebral cortex membranes
# T1 sequence (P56481 1-453): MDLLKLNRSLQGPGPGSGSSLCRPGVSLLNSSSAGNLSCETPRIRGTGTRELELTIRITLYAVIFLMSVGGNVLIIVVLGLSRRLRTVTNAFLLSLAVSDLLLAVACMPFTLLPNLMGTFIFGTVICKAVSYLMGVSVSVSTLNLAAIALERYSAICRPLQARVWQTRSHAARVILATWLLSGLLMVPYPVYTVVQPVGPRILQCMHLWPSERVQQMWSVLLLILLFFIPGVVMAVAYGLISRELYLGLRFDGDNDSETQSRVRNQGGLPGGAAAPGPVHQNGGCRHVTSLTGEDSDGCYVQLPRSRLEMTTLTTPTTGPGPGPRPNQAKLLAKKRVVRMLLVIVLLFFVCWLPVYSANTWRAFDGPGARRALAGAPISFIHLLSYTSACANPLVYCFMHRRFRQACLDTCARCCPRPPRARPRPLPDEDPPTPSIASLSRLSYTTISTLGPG
# From the text: Tests on binding to cerebral cortex membranes of mice
# The capacities of some of the compounds of the invention to inhibit the binding of pentagastrin to the gastrin receptor sites on the cerebral cortex membranes of mice was to be evaluated. Pentagastrin tritiate[beta-alanyl-3-3H(N)] was used as the ligand.
# Mouse cortical tissue Was homogenised cold in 20 volumes of tris buffer (pH 7.7). After washing and centrifuging, the final pellet was resuspended in 20 volumes of binding buffer containing, inter alia, TRIS, BSA and Bacitracin. 0.4 ml of the membrane thus obtained were then incubated with a radioactive tracer and the compounds under test for 40 minutes at 37° C.
# After the supernatant liquid had been removed by centrifuging, the radioactivity associated with the pellet was determined with a liquid scintillator (a beta-counter). The specific binding was the difference between the binding in the absence and in the presence of 10^-5M pentagastrin.
# [4] = tested on: gastric acid secretion induced by pentagastrin; assay: Antisecretive activity in anaesthetised rats (pentagastrin-stimulated gastric acid secretion); assay type: in vivo
# Procedure: Antisecretive activity in anaesthetised rats
# Antisecretive activity in rats was determined with the use of male animals each weighing about 200 g, anaesthetised with urethane. Gastric secretion was stimulated with pentagastrin. The method of K. S. Lai (Gut 5, (1964), 327-341) was used, slightly modified.
# After tracheotomy, cannulae were inserted in the oesophagus and the duodenum. A tepid solution. (37° C.) of 0.25 mM NaOH was perfused and passed through the stomach by means of a peristaltic pump at a constant flow rate of 1 ml/minute. After stabilisation for 20 minutes, the stimulating agent, dissolved in a physiological solution, was perfused for 120 minutes at a dose of 30 mcg/Kg/h in a volume of 0.95 ml/hour. After perfusion for 60 minutes (the basal stimulation), the product under test was administered as an intravenous bolus (I.V.) and the perfusion of the stimulant continued for a further 60 minutes. Acid secretion was recorded continuously as a function of time.
# The activity of the product was evaluated as the percentage reduction in the secreted acidity after the administration of the product compared with the base acidity measured during the first 60 minutes of collection during which only the pentagastrin was present.
# Different doses of the antagonist compounds tested were administered so that an ID50, that is, the dose (in mg/Kg I.V.) capable of inhibiting the effect of pentagastrin by 50%, could be calculated.
# The results thus obtained are illustrated in the following table (Table 1) in which the activities of the compounds are expressed as the ID50s under the stimulus of 30 mcg/Kg/h of pentagastrin.
# fundic and colic mucosae = details: rats; cited from earlier work
# [5] = tested on: transplantable mouse colic tumour; details: Winsell et al., Surgical Forum, 33, 384 (1982); cited from earlier work
# fundic mucosa = assay: Fundic mucosa hyperplasia induced by pentagastrin in mice; assay type: in vivo; details: 21 days
# From the text: (§1) Inhibitory effect on the rate of growth of tumorous colic cells induced by pentagastrin
# (§2) Gastrin has a trophic effect on the digestive epithelium.
# (§3) Upon the basis of this premise, it was wished to investigate whether the gastrin-specific antagonists of the invention could antagonise the growth of experimentally-induced gastrointestinal tumours.
# (§4) Male mice weighing 20-25 g were inoculated subcutaneously in the interscapular region with a suspension of 8×10^4 tumour cells of a mouse colic adenocarcinoma.
# (§5) After 21 days, the animals were killed and the fundic mucosa and the tumours were removed, weighed and extracted to determine the DNA.
# [6] = tested on: mouse colic adenocarcinoma; assay: Colic tumorous growth induced by pentagastrin in mice; assay type: in vivo; details: 21 days
# From the text: as §1, §2, §3, §4, §5
# [7] = pentagastrin alone, 250 mcg/Kg twice a day
compound,measurement,setting,value
O=C(O)CC[C@@H](NC(=O)c1cccc(Cl)c1)C(=O)N1CCC2(CCCC2)CC1 [Compound C1],Anti-CCK activity IC50,[1],20 µg/mL
same,Variation % (Mean ± SD) from base (0-60 min),"[2]; 5 mg/Kg I.V., period 60-120 min",-18.2 ± 0.3%
same,Variation % (Mean ± SD) from base (0-60 min),"[2]; 5 mg/Kg I.V., period 120-180 min",-22.8 ± 16.7%
same,Variation % (Mean ± SD) from base (0-60 min),"[2]; 10 mg/Kg I.V., period 60-120 min",-38.9 ± 7.9%
same,Variation % (Mean ± SD) from base (0-60 min),"[2]; 10 mg/Kg I.V., period 120-180 min",-14.3 ± 8.5%
same,Variation % (Mean ± SD) from base (0-60 min),"[2]; 20 mg/Kg I.V., period 60-120 min",-49.5 ± 4.2%
same,Variation % (Mean ± SD) from base (0-60 min),"[2]; 20 mg/Kg I.V., period 120-180 min",-26.1 ± 6.4%
same,Variation % (Mean ± SD) from base (0-60 min),"[2]; 30 mg/Kg I.V., period 60-120 min",-61.1 ± 12.5%
same,Variation % (Mean ± SD) from base (0-60 min),"[2]; 30 mg/Kg I.V., period 120-180 min",-56.7 ± 19.5%
same,Variation % (Mean ± SD) from base (0-60 min),"[2]; 40 mg/Kg I.V., period 60-120 min",-63.4 ± 11.5%
same,Variation % (Mean ± SD) from base (0-60 min),"[2]; 40 mg/Kg I.V., period 120-180 min",-43.4 ± 10.3%
same,Variation % (Mean ± SD) from base (0-60 min),"[2]; 60 mg/Kg I.V., period 60-120 min",-74.2 ± 5.6%
same,Variation % (Mean ± SD) from base (0-60 min),"[2]; 60 mg/Kg I.V., period 120-180 min",-79.9 ± 1.6%
same,ED50,"[2]; 1 h, conscious dogs, I.V. bolus, period 60-120 min (first hour after administration)",19.7 mg/kg
same,ED50,"[2]; 2 h, conscious dogs, I.V. bolus, period 120-180 min (second hour after administration)",31.5 mg/kg
same,ID50,"[2]; conscious dogs, I.V. bolus, period 60-120 min (first hour after administration), 60 min",about 20 mg/Kg
same,Inhibition of gastric acid secretion induced by pentagastrin in dogs (in words),"[2]; conscious dogs, first hour after bolus",potent inhibitors of gastric acid secretion induced by pentagastrin in dogs
same,Activity relative to the corresponding S enantiomer (times more active),[3]; R series vs S enantiomers (C1 vs C32),about 50 times
same,IC50,"[3]; pentagastrin tritiate ligand, 40 minutes at 37° C., read-out: IC50, inhibition of the binding of pentagastrin",470 nM
same,Central activity relative to C2,[3]; vs C2,only one third as active as C2 centrally
same,ED50,"[4]; Rattus norvegicus, iv, anaesthetised male rats, pentagastrin 30 mcg/Kg/h, I.V. bolus, IN with bound, read-out: Antagonistic activity (ID50) towards gastric acid secretion induced by pentagastrin",20 mg/kg
same,Antigastrin activity (in words),"[4]; anaesthetised rats, pentagastrin 30 mcg/Kg/h",particularly favourable
same,Activity on the peripheral gastrin (gastric secretion) receptor relative to compound C2 (times more active),"[4]; rats, vs C2",about 1.5 times
gastrin,Trophic effect of chronic administration,fundic and colic mucosae,causes hyperplasia of the fundic and colic mucosae
same,Effect on growth of a transplantable mouse colic tumour,[5],stimulates the growth of a transplantable mouse colic tumour
"CSCC[C@H](NC(=O)[C@H](Cc1c[nH]c2ccccc12)NC(=O)CCNC(=O)OC(C)(C)C)C(=O)N[C@@H](CC(=O)O)C(=O)N[C@@H](Cc1ccccc1)C(N)=O [Pentagastrin, pentagastrin, reference compound]",Effect on the fundic mucosa (in words),fundic mucosa; mice,induces significant hyperplasia in the fundic mucosa
same,"Fundic DNA, Mean ± SD",fundic mucosa; [7],0.330 ± 0.05 mg
same,"Weight of the mucosa fundica, Mean ± SD",fundic mucosa; [7],32.0 ± 3.50 mg
same,Trophic effect of chronic administration,fundic and colic mucosae,causes hyperplasia of the fundic and colic mucosae
same,IC50,[3],2.5 nM
same,Effect on colic tumour weight and DNA content (in words),[6]; mice,a significant increase in the weight of the colic tumour and the DNA content
same,"Tumorous DNA, Mean",[6]; [7],3.62 ± 0.50 mg
same,"Weight of the colic tumor, Mean ± SD",[6]; [7],657.0 ± 97.7 mg
